Patent US7067257B2, “Thyrotropin-releasing hormone analogues and their therapeutic applications” (University of Florida, priority 2002, dated 2006)
Square brackets hold non-standard residues; d marks the D form. Peptide text beside a SMILES is read from it. pGlu = O=C1CC[C@@H](C(=O)O)N1

Experiments:
Swiss Webster mice [1] = experiment: duration of analeptic action, antagonism of barbituate-induced anesthesia (Example 6); assay type: in vivo; conditions: 15 μmol/kg i.v.; pentobarbital injection at 60 minutes compared to after 10 minutes
Protocol: A pharmacological paradigm was used to assess the potency of the subject TRH analogues as central nervous system agents administered to animals in their prodrug forms in vivo. The antagonism on the barbituate-induced anesthesia was explored to survey the extent of activation of cholinergic neurons by the test compounds. Ten to sixteen Swiss Webster mice (30±2 g) were used in each group. Test compounds were dissolved in degassed DMSO. The vehicle alone (1.5 ml/kg body weight) or equimolar doses of TRH as control and prodrugs according to the present invention (15 μmol/kg body weight) were injected through the tail vein. After 10 minutes, each animal received an intraperitoneal (i.p.) injection of sodium pentobarbital at dose 60 mg/kg bodyweight. An increase in the time after which the animals were injected with TRH and a TRH analogue according to the present invention and after the cholinergic challenge was made was increased. The sleeping time was recorded as the time elapsed from the onset of the loss of righting reflex until the reflex was regained.

[2] = rat, human, in vivo; cited from earlier work
[3] = in vitro stability in mouse brain homogenate; assay type: in vitro ADME; conditions: mouse brain homogenate (20% w/v)
Protocol: In vitro stability studies in mouse brain homogenate (20% w/v) were conducted at 100 μM concentration of TRH analogues of Formula I wherein R^3 is an ester moiety. Analytical reversed-phase gradient HPLC with UV detection (λ=214 nm) was used to monitor the decline in the concentration in the compound added. The half-lives (t1/2) were 20 and 22 minutes for the TRH analogues derived from primary alcohols and 25 minutes and 70 minute for TRH analogues derived from […]. TRH analogues of the subject invention in which R^3 is benzyl ester was discovered to be relatively stable in the tissue (t1/2>2 hours).

Swiss Webster mice [4] = experiment: antagonism of barbiturate-induced anesthesia in mice (Example 9); assay type: in vivo; conditions: 10 μmole/kg i.v.; sodium pentobarbital 60 mg/kg i.p. after 10 minutes
Protocol: The antagonism of the barbiturate-induced anesthesia in mice was used to assess the increase in the access of the TRH analogues of the present invention to the central nervous system compared to the parent TRH-like tripeptide (pGlu-Glu-Pro-NH2). In this assay related to the analeptic activity of the TRH-like tripeptide, 10 to 18 Swiss Webster mice (30±2 g body weight) were used in each group. The vehicle alone (1.5 ml/kg body weight) or equimolar doses of TRH-like tripeptide as control and the TRH analogues of Formula I (10 μmole/kg body weight) were injected through the tail vein (i.v.). In another group of animals, the TRH-like tripeptide was administered at 10-times higher dose (100 μmol/kg) for comparison. After 10 minutes, each animal received an intraperitoneal (i.p.) injection of sodium pentobarbital at a dose of 60 mg/kg body weight. The sleeping time was recorded from the onset of the loss of righting reflex until the reflex was regained.
Based on measuring analeptic activity in the animal model selected.

For NC(=O)[C@@H]1CCCN1C(=O)[C@H](Cc1cnc[nH]1)NC(=O)[C@@H]1CCC(=O)N1 [TRH, L-pyroglutamyl-L-histidyl-L-prolinamide], the “loss of central nervous system (analeptic) activity” value (Swiss Webster mice [1]) is given as “over 50%” and the biological half-life [2] is given as 4–6 minutes.

In the case of NC(=O)[C@@H]1CCCN1C(=O)[C@H](CCC(=O)OCc1ccccc1)NC(=O)[C@@H]1CCC(=O)N1 [benzyl ester] (HELM PEPTIDE1{[Glp].E.P.[am]}|CHEM1{[c1ccc(CO[*:1])cc1]}$PEPTIDE1,CHEM1,2:R3-1:R1$$$V2.0), the half-life at 100 μM [3] is reported as > 2 h.

“[pGlu]-Glu-Pro-NH2 [TRH-like tripeptide]” showed a sleeping time (Swiss Webster mice [4]) of 65±3 minutes SEM.
